Broadly, the IC50 is the concentration that gives 50% inhibition.

In one experiment the target is T1, aggrecanase-1 (Homo sapiens, UniProt O75173).
T1 sequence (O75173 213-837): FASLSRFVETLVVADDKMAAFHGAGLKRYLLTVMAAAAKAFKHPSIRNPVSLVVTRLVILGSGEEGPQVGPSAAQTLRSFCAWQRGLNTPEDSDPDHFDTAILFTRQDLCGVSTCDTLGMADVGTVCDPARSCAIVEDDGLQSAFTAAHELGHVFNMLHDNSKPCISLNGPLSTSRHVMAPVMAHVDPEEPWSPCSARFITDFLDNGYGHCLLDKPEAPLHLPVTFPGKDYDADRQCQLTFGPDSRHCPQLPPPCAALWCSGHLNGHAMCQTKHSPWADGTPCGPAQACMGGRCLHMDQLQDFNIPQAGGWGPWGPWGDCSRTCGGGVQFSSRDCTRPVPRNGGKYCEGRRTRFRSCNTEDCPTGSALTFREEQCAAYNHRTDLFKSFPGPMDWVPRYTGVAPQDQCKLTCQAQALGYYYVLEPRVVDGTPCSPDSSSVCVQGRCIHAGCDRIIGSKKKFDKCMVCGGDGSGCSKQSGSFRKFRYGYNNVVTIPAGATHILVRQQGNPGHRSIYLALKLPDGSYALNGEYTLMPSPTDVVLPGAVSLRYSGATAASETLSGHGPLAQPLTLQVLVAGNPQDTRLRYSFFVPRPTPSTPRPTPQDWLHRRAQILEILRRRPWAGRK
Briefly: Aggrecanase-1 inhibitory action (Particle Assay, GAG release from aggrecan-containing polyacrylamide particles). It counts as biochemical. As to the method:
Particle Assay was used for determination of aggrecanase activity.
(§1) The enzyme and substrate were diluted with Tris-HCl buffer, and test compounds were diluted with dimethyl sulfoxide (DMSO).
Test compounds and the enzyme were added into 96-well plate, and polyacrylamide particles containing aggrecan were added as a substrate and the mixture was incubated at 37° C. for 15 hr.
After incubation, the supernatant was transferred to another plate, and mixed with 1,9-dimethylmethylene blue. The absorbence at 595 nm was measured to quantify the amount of glycosaminoglycan (GAG) released in the reaction supernatant. Whale chondroitin sulfate was used as the standard of GAG. The inhibitory activity of the compound in each well (%) was calculated based on the values of enzyme-free well and inhibitor-free well. The inhibitory activity of the compound was represented as […] (μM).

A further experiment concerns the target T2, MMP-1 (Homo sapiens, UniProt P03956).
T2 sequence (P03956 100-469): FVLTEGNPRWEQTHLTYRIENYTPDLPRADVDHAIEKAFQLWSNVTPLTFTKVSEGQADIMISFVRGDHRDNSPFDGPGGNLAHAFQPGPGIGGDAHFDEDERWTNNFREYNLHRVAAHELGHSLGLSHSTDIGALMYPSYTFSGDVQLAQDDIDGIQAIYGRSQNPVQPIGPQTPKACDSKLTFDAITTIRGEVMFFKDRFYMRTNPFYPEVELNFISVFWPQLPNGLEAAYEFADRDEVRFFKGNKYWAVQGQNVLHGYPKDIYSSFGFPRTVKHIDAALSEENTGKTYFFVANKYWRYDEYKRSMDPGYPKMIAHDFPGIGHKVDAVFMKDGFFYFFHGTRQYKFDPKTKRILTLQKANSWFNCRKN
The experiment in a line: MMP-1 inhibitory action (Type I collagen Activity Measurement kit, FITC-labeled collagen type I). The settings on record: MMP-1 inhibitory action, FITC-labeled collagen type I, 37° C. for 3 hr; read-out: IC50 MMP1 (Experimental Example 2). It counts as biochemical. As to the method: For MMP-1 Assay, Type I collagen Activity Measurement kit (YAGAI YU-72013) modified to a 96-well plate format was used.
The principle of the kit is based on the property of collagen that becomes soluble in ethanol after being cleaved by MMP-1.
as §1
The enzyme and test compounds were added into 96-well plate, and fluorescein isothiocianate (FITC)-labeled collagen type I was added as a substrate and the mixture was incubated at 37° C. for 3 hr.
The reaction was terminated by addition of Tris-HCl buffer containing ethanol. After centrifugation, the supernatant containing denatured substrate was transferred to another 96-well plate. The collagenase activity of MMP-1 was determined by measuring FITC fluorescence intensity (excitation wavelength 485 nm, emission wavelength 530 nm) of each well. The inhibitory activity of the compound in each well (%) was calculated based on the values of enzyme-free well and inhibitor-free well. The inhibitory activity of the compound was represented as IC50 (μM).

The mark [1] stands for this setting: aggrecanase-1 inhibitory action, read-out: IC50 AG1 (Experimental Example 1).
Where [2] appears, read: Experimental Example 1, read-out: IC50 AG1.

Molecules are shown by their SMILES. Read-outs that look alike come from different tables or passages of the source.

With `O=C(O)[C@]1(NS(=O)(=O)c2ccc(-c3ccc(Cl)cc3)cc2)C[C@@H]1c1ccccc1` [Example 1, (1S,2R)-1-(4′-Chlorobiphenyl-4-sulfonylamino)-2-phenylcyclopropanecarboxylic acid], the IC50 on aggrecanase-1 (setting [1]) is less than 1 µM; on MMP-1, not below 1 µM. For `COc1ccccc1C1CC1(NS(=O)(=O)c1ccc(-c2ccc(Cl)cc2)s1)C(=O)O` (stereo not drawn) [Example 1-4], the IC50 was less than 0.1 µM at aggrecanase-1 (setting [1]) and not below 1 µM on MMP-1.

Take `O=C(O)[C@@]1(NS(=O)(=O)c2ccc(-c3ccc(Cl)cc3)cc2)C[C@H]1c1ccccc1` [Example 1-7]: the figures for the IC50 at aggrecanase-1 (setting [1]) and at MMP-1 were less than 1 µM and not below 10 µM, respectively. As to `COc1ccccc1C1CC1(NS(=O)(=O)c1ccc(-c2ccc(Cl)cc2)cc1)C(=O)O` (stereo not drawn) [Example 1-13], the IC50 on aggrecanase-1 (setting [1]) is less than 1 µM; at MMP-1 it was not below 1 µM. Take `O=C(O)C1(NS(=O)(=O)c2ccc(-c3ccc(Cl)cc3)cc2)CC1c1ccccc1Oc1ccccc1` (stereo not drawn) [Example 1-14]: the IC50 at aggrecanase-1 (setting [1]) is less than 1 µM; at MMP-1, not below 10 µM. The like results for `CN(C)c1cccc(C2CC2(NS(=O)(=O)c2ccc(-c3ccc(Cl)cc3)cc2)C(=O)O)c1` (stereo not drawn) [Example 1-21] were, in that order, less than 1 µM and not below 1 µM.

Turning to `O=C(O)C1(NS(=O)(=O)c2ccc(-c3ccc(Br)cc3)cc2)CC1c1ccccc1` (stereo not drawn) [Example 1-31], the IC50 on aggrecanase-1 (setting [1]) was less than 1 µM; at MMP-1, not below 10 µM.

Take `CC(C)(C)OC(=O)N1CCC(Nc2cccc(C3CC3(NS(=O)(=O)c3ccc(-c4ccc(Cl)cc4)cc3)C(=O)O)c2)CC1` (stereo not drawn) [Example 1-42]: the IC50 is less than 1 µM at aggrecanase-1 (setting [1]) and not below 1 µM at MMP-1. With `O=C(O)C1(NS(=O)(=O)c2ccc(-c3ccc(Cl)cc3)cc2)CC1c1cccc(NCc2ccccc2)c1` (stereo not drawn) [Example 1-43], the IC50 at aggrecanase-1 (setting [1]) is less than 1 µM; on MMP-1, not below 1 µM. For the compound `O=C(O)C1(NS(=O)(=O)c2ccc(-c3ccc(Cl)cc3)cc2)CC1c1cccc(O)c1` (stereo not drawn) [Example 1-44], the values for the IC50 on aggrecanase-1 (setting [1]) and on MMP-1 were less than 1 µM and not below 1 µM, respectively. As to `O=C(O)C1(NS(=O)(=O)c2ccc(OCc3ccc(Cl)cc3Cl)cc2)CC1c1ccccc1` (stereo not drawn) [Example 1-65], the half-maximal inhibitory concentration (IC50) on MMP-1 was not below 10 µM. As to `O=C(O)C1(NS(=O)(=O)c2ccc3c(c2)Cc2cc(F)ccc2-3)CC1c1ccccc1` (stereo not drawn) [Example 1-80], the IC50 at aggrecanase-1 (setting [1]) is less than 0.1 µM; on MMP-1, not below 10 µM.

`CN(C)Cc1cccc(C2CC2(NS(=O)(=O)c2ccc(-c3ccc(Cl)cc3)s2)C(=O)O)c1` (stereo not drawn) [Example 1-98]: the IC50 at aggrecanase-1 (setting [1]) was less than 1 µM; on MMP-1, not below 10 µM.

For the compound `O=C(O)[C@]1(NS(=O)(=O)c2cnc(-c3ccc(Cl)cc3)s2)C[C@@H]1c1ccccc1` [Example 1-100], the IC50 is less than 1 µM at aggrecanase-1 (setting [1]) and not below 1 µM on MMP-1. `Cn1ccnc1CNc1cccc(C2CC2(NS(=O)(=O)c2ccc(-c3ccc(Cl)cc3)cc2)C(=O)O)c1` (stereo not drawn) [Example 1-101]: the half-inhibitory concentration (IC50) was less than 1 µM at aggrecanase-1 (setting [1]) and not below 10 µM at MMP-1. The matching figures for `CN1CCC(N(C)Cc2cccc(C3CC3(NS(=O)(=O)c3ccc(-c4ccc(Cl)cc4)s3)C(=O)O)c2)CC1` (stereo not drawn) [Example 1-104]: less than 1 µM and not below 10 µM. The like results for `O=C(CO)Nc1cccc(C2CC2(NS(=O)(=O)c2ccc(-c3ccc(Cl)cc3)cc2)C(=O)O)c1` (stereo not drawn) [Example 1-105] were, in that order, less than 1 µM and not below 1 µM. For the compound `O=C(O)[C@]1(NS(=O)(=O)c2ccc(-c3cccc(Cl)c3)s2)C[C@@H]1c1ccccc1` [Example 1-110], the IC50 on aggrecanase-1 (setting [1]) is less than 1 µM; on MMP-1 it was not below 1 µM.

For `O=C(O)C1(NS(=O)(=O)c2ccc(-c3ccc(Cl)cc3)cc2)CC1c1cccc(NCc2ncc[nH]2)c1` (stereo not drawn) [Example 1-112], the IC50 is less than 1 µM on aggrecanase-1 (setting [1]) and not below 1 µM at MMP-1. The matching figures for `CN(C)C(=O)COc1cccc(C2CC2(NS(=O)(=O)c2ccc(-c3ccc(Cl)cc3)cc2)C(=O)O)c1` (stereo not drawn) [Example 1-114]: less than 1 µM and not below 1 µM.

Regarding `COc1cccc(C2CC2(NS(=O)(=O)c2ccc(-c3ccc(Cl)cc3)s2)C(=O)O)c1` (stereo not drawn) [Example 1-115], the results for the IC50 on aggrecanase-1 (setting [1]) and on MMP-1 were less than 1 µM and not below 1 µM, respectively. On to `O=C(O)C1(NS(=O)(=O)c2ccc(-c3ccc(Cl)cc3)s2)CC1c1cccc(O)c1` (stereo not drawn) [Example 1-116], for which the IC50 on aggrecanase-1 (setting [1]) was less than 1 µM; at MMP-1, not below 1 µM.

As for `NC(=O)COc1cccc(C2CC2(NS(=O)(=O)c2ccc(-c3ccc(Cl)cc3)cc2)C(=O)O)c1` (stereo not drawn) [Example 1-117], the values for the IC50 at aggrecanase-1 (setting [1]) and at MMP-1 were less than 0.1 µM and not below 1 µM, respectively. As for `CNC(=O)COc1cccc(C2CC2(NS(=O)(=O)c2ccc(-c3ccc(Cl)cc3)cc2)C(=O)O)c1` (stereo not drawn) [Example 1-118], the IC50 at aggrecanase-1 (setting [1]) was less than 0.1 µM; on MMP-1, not below 1 µM.

Turning to `O=C(O)[C@]1(NS(=O)(=O)c2ccc(-c3ccc(Cl)cc3Cl)s2)C[C@@H]1c1ccccc1` [Example 1-125], the values for the IC50 at aggrecanase-1 (setting [1]) and at MMP-1 were less than 0.1 µM and not below 10 µM, respectively. The matching figures for `NC(=O)Nc1cccc(C2CC2(NS(=O)(=O)c2ccc(-c3ccc(Cl)cc3)s2)C(=O)O)c1` (stereo not drawn) [Example 1-135]: less than 1 µM and not below 1 µM.

For the compound `NC(=O)c1cccc(C2CC2(NS(=O)(=O)c2ccc(-c3ccc(Cl)cc3)s2)C(=O)O)c1` (stereo not drawn) [Example 1-137], the IC50 at aggrecanase-1 (setting [1]) was less than 1 µM; on MMP-1 it was not below 1 µM.

For the compound `O=C(COc1ccccc1C1CC1(NS(=O)(=O)c1ccc(-c2ccc(Cl)cc2)s1)C(=O)O)NCc1ccccc1` (stereo not drawn) [Example 1-145], the figures for the IC50 on aggrecanase-1 (setting [1]) and at MMP-1 were less than 1 µM and not below 10 µM, respectively. The matching figures for `O=C(COc1ccccc1C1CC1(NS(=O)(=O)c1ccc(-c2ccc(Cl)cc2)s1)C(=O)O)N1CCOCC1` (stereo not drawn) [Example 1-146]: less than 0.1 µM and not below 10 µM. The matching figures for `CC(C)NC(=O)COc1ccccc1C1CC1(NS(=O)(=O)c1ccc(-c2ccc(Cl)cc2)s1)C(=O)O` (stereo not drawn) [Example 1-147]: less than 1 µM and not below 10 µM. Take `Cc1cnc(-c2ccc(S(=O)(=O)N[C@@]3(C(=O)O)C[C@@H]3c3ccccc3)s2)s1` [Example 2-26]: the 50% inhibitory concentration (IC50) was less than 1 µM on aggrecanase-1 (setting [1]) and not below 10 µM on MMP-1. The matching figures for `O=C(O)C1(NS(=O)(=O)c2ccc(-c3ccc(Cl)cc3)s2)CC1c1cccnc1` (stereo not drawn) [Example 2-70]: less than 1 µM and not below 10 µM. In the case of `O=C1O[C@H]([C@H]2C[C@@]2(NS(=O)(=O)c2ccc(-c3ccc(Cl)cc3)s2)C(=O)O)CN1Cc1ccccc1` [Example 2-138], the half-inhibitory concentration (IC50) at aggrecanase-1 (setting [1]) was not below 10 µM. In the case of `C[C@]1(c2ccccc2)C[C@@]1(NS(=O)(=O)c1ccc(-c2cccc(OCCO)c2)s1)C(=O)O` [Example 2-575], the IC50 on aggrecanase-1 (setting [2]) was not below 1 µM.

Consider `C[C@]1(c2ccccc2)C[C@@]1(NS(=O)(=O)c1ccc(-c2cccc(OCCCO)c2)s1)C(=O)O` [Example 2-576], for which the IC50 at aggrecanase-1 (setting [2]) was not below 1 µM.

For the compound `COc1ccc(-c2ccc(S(=O)(=O)N[C@@]3(C(=O)O)C[C@]3(C)c3ccccc3)s2)cc1CO` [Example 2-592], at aggrecanase-1 (setting [2]), the IC50 was not below 1 µM.

On to `COc1cccc([C@@]2(C)C[C@@]2(NS(=O)(=O)c2ccc(-c3cc(C(F)(F)F)on3)s2)C(=O)O)c1` [Example 2-624], for which the IC50 on aggrecanase-1 (setting [2]) was less than 0.1 µM. For `CC1[C@](C)(c2ccccc2)[C@]1(NS(=O)(=O)c1ccc(-c2cc(C(C)(F)F)on2)s1)C(=O)O` (stereo partly drawn) [Example 2-625], the IC50 on aggrecanase-1 (setting [2]) was less than 0.1 µM.

Source of the values: US20080261994A1, “CYCLOPROPANE COMPOUNDS AND PHARMACEUTICAL USE THEREOF” (Japan Tobacco Inc., priority 2003, published 2008).
